Peptide text beside a SMILES is read from it.
How the values were obtained:
[1] = system: Fusarium culmorum VKM F-2303; assay: Spore germination and fungal growth inhibition (absorbance); assay type: cell-based; details: for IC50: Fusarium culmorum, 38 h incubation, absorbance 595 nm, max tested 150 μM, mean ± SD, three replicates; for Inhibition of F. culmorum growth: 38 h
Procedure: (§1) To study the effect of peptides on spore germination and growth of plant pathogenic fungi, fungal strains from the VKM collection were used: Fusarium culmorum VKM F-2303, F. oxysporum VKM F-137, F. solani VKM F-142, F. verticillioides VKM F-670, Bipolaris sorokiniana VKM F-4006, and Botrytis cinerea VKM F-4549. The fungi were grown on potato dextrose agar at 25 °C for 7–8 days, or for B. sorokiniana and B. cinerea, for 10–12 days. Spores were washed off from the surface of the mycelia with sterile distilled water and filtered through a sterile filter. The filtrate was centrifuged at 6000 rpm for 15 min. The precipitate was washed three times with sterile distilled water, transferred to Eppendorf tubes, and centrifuged at 10,000 rpm for 2 min. 1 mL of sterile aqueous 20% glycerol solution was added to the spores, and the tubes with spores were stored in a freezer at −20 °C.
(§2) Similar to antimicrobial assays with yeasts and bacteria, the effect of peptides on spore germination and fungal growth was studied by measuring the absorbance of the spore suspension in the presence of the peptide in microtiter plates. The wells of a plate were filled with 90 µL of spore suspension in half-strength potato dextrose broth at a concentration of 2000–3000 spores in 100 µL and 10 µL of aqueous solutions of peptides at final concentrations of 10–300 µM. The concentration of spores in the suspension was determined in the Goryaev chamber. The absorbance was recorded at 595 nm on a FilterMax F5 Multi-Mode Microplate Reader (Molecular Devices, San Jose, CA, USA) after 38 h of incubation, for B. sorokiniana and B. cinerea, after 14, 19, 24, 38, 43, 62 h.
(§3) Antimicrobial activity was expressed in IC50 values, which denote the concentration required for 50% inhibition of the pathogen growth; this was determined from a graph showing the dependence of antimicrobial activity on peptide concentration.
(§4) For each pathogen, experiments on the evaluation of antimicrobial activity of the synthetic peptides were performed with three replicates per treatment. Mean values, standard deviations (SD), and the significance of differences (p ≤ 0.05) of the means between treatments and controls (t-test for independent variables) were determined using STATISTICA v. 6.1 software (StatSoft Inc., Tulsa, OK, USA).

F. oxysporum VKM F-137 = assay type: cell-based; details: Fusarium oxysporum; 38 h incubation, absorbance 595 nm; max tested 150 μM; mean ± SD, three replicates
Procedure: as §1, §2, §3, §4

[2] = system: Clavibacter michiganensis subsp. michiganensis VKM Ac-1403; assay type: cell-based; details: for IC50: Clavibacter michiganensis, 24 h incubation, 30 °C, absorbance 594 nm, max tested 100 μM, mean ± SD, three replicates
Procedure: (§5) The antimicrobial activity of synthetic peptides was tested against the yeasts Cryptococcus neoformans VKM Y-2755 and Candida albicans VKM Y-2994, as well as against the bacteria Pectobacterium carotovorum subsp. carotovorum VKM B-1247, Pseudomonas savastanoi pv. savastanoi VKM B-1546 and Clavibacter michiganensis subsp. michiganensis VKM Ac-1403. All cultures were obtained from the All-Russian Collection of Microorganisms (VKM). Yeasts were grown on YPD-P medium containing (g/L): glucose–10, peptone–5 and yeast extract–4. Bacterial cultures were grown on medium containing (g/L): yeast extract–1, soya extract–30, aminopeptides (a solution of low-molecular weight peptides and all essential amino acids obtained from the blood of cattle by enzymatic hydrolysis)–60, tryptone–5 and pH 7.2. The microbial cultures were grown on a shaker at 30 °C for 24 h. The optical density of the cultures was measured on a UNICO 1201 (Unico, Dayton, NJ, USA) spectrophotometer at 594 nm. Yeast cultures were diluted 1:10 with water before analysis. […] The antibiotic activity of peptides against yeasts and bacteria was assayed in immunoassay microtiter plates. 10 µL of the tested peptide solution (final concentrations of 10–300 µM) in water, 80 µL of the medium and 10 µL of the microbial suspension were mixed in a well of the microtiter plate and incubated at 30 °C for 24 h; after that, the absorbance of the suspension was measured on an Efos 9305 spectrophotometer (Sapphire, Moscow, Russia) at 594 nm.
as §3, §4

[3] = system: Cryptococcus neoformans VKM Y-2755; details: for IC50: Cryptococcus neoformans, 24 h incubation, 30 °C, absorbance 594 nm, max tested 100 μM, mean ± SD, three replicates; for Inhibition of C. neoformans growth: peptide 300 μM, 24 h, relative to control
Procedure: as §5, §3
as §4, with “STATISTICA” left out

[4] = system: F. verticillioides VKM F-670; assay type: cell-based, Fusarium verticillioides; details: for IC50: Fusarium verticillioides, 38 h incubation, absorbance 595 nm, max tested 180 μM, mean ± SD, three replicates
Procedure: as §1
as §2, with “h. […]” for “h.”
as §4, with “6.1 software (StatSoft Inc., Tulsa, OK, USA).” left out

F. solani VKM F-142 = assay type: cell-based, Fusarium solani; details: for IC50: Fusarium solani, 38 h incubation, absorbance 595 nm, max tested 150 μM, mean ± SD, three replicates
Procedure: as §1
as §2, with “h. […]” for “h.”
as §4, with “6.1 software (StatSoft Inc., Tulsa, OK, USA).” left out

[5] = system: Pectobacterium carotovorum subsp. carotovorum VKM B-1247; assay: Growth inhibition of bacteria in microtiter plates (absorbance); assay type: cell-based; details: peptide 300 μM, 24 h, relative to control
Procedure: The antimicrobial activity of synthetic peptides was tested against the yeasts Cryptococcus neoformans VKM Y-2755 and Candida albicans VKM Y-2994, as well as against the bacteria Pectobacterium carotovorum subsp. carotovorum VKM B-1247, Pseudomonas savastanoi pv. savastanoi VKM B-1546 and Clavibacter michiganensis subsp. michiganensis VKM Ac-1403. All cultures were obtained from the All-Russian Collection of Microorganisms (VKM). Yeasts were grown on YPD-P medium containing (g/L): glucose–10, peptone–5 and yeast extract–4. […] The optical density of the cultures was measured on a UNICO 1201 (Unico, Dayton, NJ, USA) spectrophotometer at 594 nm. […] 10 µL of the tested peptide solution (final concentrations of 10–300 µM) in water, 80 µL of the medium and 10 µL of the microbial suspension were mixed in a well of the microtiter plate and incubated at 30 °C for 24 h; after that, the absorbance of the suspension was measured on an Efos 9305 spectrophotometer (Sapphire, Moscow, Russia) at 594 nm. […]
as §4, with “6.1 software (StatSoft Inc., Tulsa, OK, USA).” left out

[6] = system: Botrytis cinerea VKM F-4549; assay type: cell-based; details: for Inhibition of B. cinerea growth: peptide 300 μM, relative to control; for B. cinerea growth dynamics in the presence of peptide: peptide 60 μM, absorbance after 14-62 h, control H2O
Procedure: as §1, §2, §3, §4

[7] = system: Bipolaris sorokiniana VKM F-4006; assay: Spore germination and fungal growth inhibition (absorbance); assay type: cell-based; details: for Inhibition of B. sorokiniana growth: peptide 300 μM, relative to control
Procedure: as §1, §2, §3, §4

Fusarium species = assay: Spore germination and fungal growth inhibition, statement for all tested Fusarium species; assay type: cell-based; details: peptide 300 μM, relative to control
Procedure: as §1
as §2, with “h. […]” for “h.”
as §4, with “6.1 software (StatSoft Inc., Tulsa, OK, USA).” left out

CC(C)C[C@H](NC(=O)[C@H](CC(N)=O)NC(=O)[C@H](CCC(N)=O)NC(=O)[C@H](CCCNC(=N)N)NC(=O)[C@H](CO)NC(=O)[C@H](CO)NC(=O)[C@H](CCCCN)NC(=O)[C@H](CO)NC(=O)[C@H](CS)NC(=O)[C@H](CCCNC(=N)N)NC(=O)[C@@H](NC(=O)[C@H](CCCCN)NC(=O)[C@H](CS)NC(=O)[C@H](CO)NC(=O)CN)[C@@H](C)O)C(=O)N[C@@H](CS)C(=O)N[C@@H](CC(N)=O)C(=O)N[C@@H](CCCNC(=N)N)C(=O)O [γ47-64SlSN10] (H-GSCKTRCSKSSRQNLCNR-OH)
IC50 [1]: 127 ± 8.5 µM | IC50 (F. oxysporum VKM F-137): 43.8 ± 6.8 µM

CC(C)C[C@H](NC(=O)[C@H](CCCNC(=N)N)NC(=O)[C@H](CS)NC(=O)[C@H](CCCNC(=N)N)NC(=O)[C@H](C)NC(=O)[C@H](C)NC(=O)[C@H](CS)NC(=O)[C@H](C)NC(=O)CN)C(=O)N[C@@H](CO)C(=O)N[C@@H](CO)C(=O)N[C@@H](CCCNC(=N)N)C(=O)N1CCC[C@H]1C(=O)N[C@@H](CCCNC(=N)N)C(=O)N[C@@H](CC(C)C)C(=O)N[C@@H](CS)C(=O)N[C@@H](Cc1c[nH]cn1)C(=O)N[C@@H](CCCNC(=N)N)C(=O)O [γ48-65SlSN2] (H-GACAARCRLSSRPRLCHR-OH)
IC50 [2]: 23.1 ± 2.7 µM | IC50 [1]: 42.1 ± 6.5 µM | Inhibition of F. culmorum growth ([1]; peptide 75 μM): 79% | IC50 [3]: 4.2 ± 0.6 µM | IC50 [4]: 152 ± 7.7 µM | IC50 (F. solani VKM F-142): 47.5 ± 2 µM | Maximum inhibition of F. solani (F. solani VKM F-142; peptide 150 μM, 38 h): 69% | IC50 (F. oxysporum VKM F-137): 57.1 ± 11.6 µM

C[C@@H](O)[C@H](NC(=O)[C@H](CS)NC(=O)[C@H](Cc1ccccc1)NC(=O)[C@H](CS)NC(=O)[C@H](CCCNC(=N)N)NC(=O)[C@H](CCCNC(=N)N)NC(=O)[C@H](CCCNC(=N)N)NC(=O)[C@H](Cc1ccccc1)NC(=O)CNC(=O)[C@H](CCCNC(=N)N)NC(=O)[C@H](CS)NC(=O)[C@H](CC(=O)O)NC(=O)CNC(=O)CNC(=O)[C@H](CO)NC(=O)[C@@H](N)Cc1ccccc1)C(=O)N[C@@H](CCCNC(=N)N)C(=O)O [γ58-74SlDEFL2] (H-FSGGDCRGFRRRCFCTR-OH)
IC50 [2]: 19.8 ± 2.5 µM | Inhibition of P. carotovorum growth [5]: 48% | IC50 [1]: 44.8 ± 4 µM | IC50 [3]: 11.5 ± 2.5 µM | Inhibition of C. neoformans growth [3]: 90% | Inhibition of B. cinerea growth [6]: 31–45%

C[C@@H](O)[C@H](NC(=O)[C@H](CS)NC(=O)[C@H](Cc1ccccc1)NC(=O)[C@H](CS)NC(=O)[C@H](CCCNC(=N)N)NC(=O)[C@H](CCCNC(=N)N)NC(=O)[C@H](CCCNC(=N)N)NC(=O)[C@H](Cc1ccccc1)NC(=O)CNC(=O)[C@H](CCCNC(=N)N)NC(=O)[C@H](CS)NC(=O)[C@H](CC(N)=O)NC(=O)CNC(=O)CNC(=O)[C@@H](NC(=O)[C@@H](N)Cc1ccccc1)[C@@H](C)O)C(=O)N[C@@H](CCCNC(=N)N)C(=O)O [γ58-74SlDEFL4] (H-FTGGNCRGFRRRCFCTR-OH)
IC50 [2]: 21.5 ± 5.1 µM | IC50 [1]: 42.3 ± 5.7 µM | IC50 [3]: 8.1 ± 2.4 µM | Inhibition of B. cinerea growth [6]: 31–45% | IC50 (F. oxysporum VKM F-137): 125 ± 3.7 µM

CC[C@H](C)[C@H](NC(=O)[C@H](CCC(=O)O)NC(=O)[C@@H]1CCCN1C(=O)[C@H](CS)NC(=O)[C@H](CS)NC(=O)CNC(=O)[C@@H](N)CCCCN)C(=O)N[C@@H](C)C(=O)NCC(=O)N[C@@H](CC(C)C)C(=O)N[C@@H](CC(C)C)C(=O)N[C@@H](CC(=O)O)C(=O)N[C@@H](CO)C(=O)N[C@@H](CC(N)=O)C(=O)N1CCC[C@H]1C(=O)N[C@H](C(=O)N[C@@H](CS)C(=O)O)[C@@H](C)CC [γ70-86SlLTPg2.8] (H-KGCCPEIAGLLDSNPIC-OH; N-terminus and C-terminus assumed)
B. cinerea growth dynamics in the presence of peptide [6]: insensitive

CC(C)C[C@H](NC(=O)CN)C(=O)N[C@@H](CS)C(=O)N[C@@H](CCCCN)C(=O)N[C@@H](Cc1ccc(O)cc1)C(=O)N[C@@H](CCCNC(=N)N)C(=O)N[C@@H](CS)C(=O)N[C@@H](CO)C(=O)N[C@@H](CC(C)C)C(=O)N[C@@H](Cc1c[nH]cn1)C(=O)N[C@@H](CO)C(=O)N[C@@H](CCCNC(=N)N)C(=O)N1CCC[C@H]1C(=O)N[C@@H](CC(N)=O)C(=O)N[C@H](C(=O)N[C@@H](CS)C(=O)N[C@@H](Cc1ccccc1)C(=O)N[C@@H](CCCNC(=N)N)C(=O)O)C(C)C [γ89-106SlSN9] (H-GLCKYRCSLHSRPNVCFR-OH)
IC50 [2]: 24 ± 2.4 µM | IC50 [1]: 42.4 ± 3.5 µM | Inhibition of F. culmorum growth ([1]; peptide 50 μM): 72% | IC50 [3]: 5.1 ± 1.2 µM | IC50 [4]: 99.8 ± 10 µM | Maximum inhibition of F. verticillioides ([4]; peptide 180 μM, 38 h): 62% | IC50 (F. solani VKM F-142): 139 ± 6.1 µM

C[C@@H](O)[C@H](NC(=O)[C@H](CCCCN)NC(=O)[C@@H]1CCCN1C(=O)[C@@H](NC(=O)[C@H](Cc1ccccc1)NC(=O)[C@H](CO)NC(=O)[C@H](CS)NC(=O)[C@H](Cc1ccc(O)cc1)NC(=O)CNC(=O)[C@H](Cc1ccccc1)NC(=O)[C@@H]1CCCN1C(=O)[C@@H](N)CCCNC(=N)N)[C@@H](C)O)C(=O)N[C@@H](CS)C(=O)O [γ92-104SlMEG2] (H-RPFGYCSFTPKTC-OH; N-terminus and C-terminus assumed)
Inhibition of C. michiganensis growth ([2]; peptide 300 μM, 24 h, relative to control): with high efficiency | B. sorokiniana growth dynamics in the presence of peptide ([7]; peptide 60 μM, effect observed after 38 h of spore incubation, control H2O): significant growth suppression | Inhibition of C. neoformans growth [3]: with high efficiency | Suppression of Fusarium species (Fusarium species): insensitive | B. cinerea growth dynamics in the presence of peptide [6]: insensitive | Inhibition of B. cinerea growth [6]: 36–40%

SGCCTQLGTVVKNNPEC [γ56-72SlLTPg2.4, synthetic 17-residue peptide corresponding to the γ-core region of tomato nsLTP SlLTPg2.4]
Inhibition of B. sorokiniana growth [7]: inactive | Suppression of Fusarium species (Fusarium species): inactive | Inhibition of B. cinerea growth [6]: inactive

SGCCTQLSTVVDEKSEC [γ53-69SlLTPg2.5, synthetic 17-residue peptide corresponding to the γ-core region of tomato nsLTP SlLTPg2.5]
Inhibition of B. sorokiniana growth [7]: inactive | Suppression of Fusarium species (Fusarium species): inactive | Inhibition of B. cinerea growth [6]: inactive
